Laboratory results from patent US11058688B2, “Imidazopiperazine inhibitors of transcription activating proteins” (Board of Regents, The University of Texas System, priority 2018, dated 2021).

Legend:
[1] = target: GST-CBP(1081-1197) bromodomain (Homo sapiens (Human), UniProt Q92793); assay: CBP AlphaScreen Assay; conditions: binding to biotin-H4(1-21) Ac-K5/8/12/16 peptide
Method: (§1) Specific binding of the CBP or BRD4 bromodomain to the acetylated peptide derived from the H4 histone substrate (tetra acetylated H4(1-21) Ac-K5/8/12/16) was measured in absence or presence of inhibitors.
(§2) The standard dose response curves were fitted by Genedata Screener software using the variable-slope model: Signal=Signalnegative control+(SignalDMSO control−Signalnegative control)/(1+(IC50/Dose)^Hill slope).
(§3) Only Signal and Dose in the equation were treated as known values.

BRD4(49-170) bromodomain = BRD4(49-170) bromodomain (Homo sapiens (Human), UniProt O60885); assay: BRD4 AlphaScreen Assay; conditions: binding to biotin-H4(1-21) Ac-K5/8/12/16 peptide
Method: as §1, §2, §3

Sequence of GST-CBP(1081-1197) bromodomain (Q92793 1081-1197): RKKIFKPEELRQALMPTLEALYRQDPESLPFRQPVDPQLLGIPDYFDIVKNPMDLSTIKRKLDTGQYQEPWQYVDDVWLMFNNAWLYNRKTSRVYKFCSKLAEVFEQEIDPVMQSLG

| Structure (SMILES) | IC50 [1] | IC50 (BRD4(49-170) bromodomain) |
| --- | --- | --- |
| CNC(=O)N1CCn2c(C3CC(F)(F)C3)nc(-c3cccc4nc(-c5cnn(C)c5)c(C(F)F)cc34)c2C1 [Example 58, 3-(3,3-difluorocyclobutyl)-1-(3-(difluoromethyl)-2-(1-methyl-1H-pyrazol-4-yl)quinolin-5-yl)-N-methyl-5,6-dihydroimidazo[1,5-a]pyrazine-7(8H)-carboxamide] | 49 nM | > 10000 nM |
| CNC(=O)N1CCn2c(C3CC3(F)F)nc(-c3cccc4nc(-c5cnn(C)c5)c(C(F)F)cc34)c2C1 (centres unmarked) [Example 60, 3-(2,2-difluorocyclopropyl)-1-(3-(difluoromethyl)-2-(1-methyl-1H-pyrazol-4-yl)quinolin-5-yl)-N-methyl-5,6-dihydroimidazo[1,5-a]pyrazine-7(8H)-carboxamide] | 18 nM | 15800 nM |
| CNC(=O)N1CCn2c(C3CCC(F)(F)C3)nc(-c3cccc4nc(-c5cnn(C)c5)c(C(F)F)cc34)c2C1 (centres unmarked) [Example 61, 3-(3,3-difluorocyclopentyl)-1-(3-(difluoromethyl)-2-(1-methyl-1H-pyrazol-4-yl)quinolin-5-yl)-N-methyl-5,6-dihydroimidazo[1,5-a]pyrazine-7(8H)-carboxamide] | 25 nM | 13900 nM |
| CNC(=O)N1CCn2c(C3CCOCC3)nc(-c3cccc4cc(N5CCOCC5)ncc34)c2C1 [Example 63, N-methyl-1-(3-morpholinoisoquinolin-8-yl)-3-(tetrahydro-2H-pyran-4-yl)-5,6-dihydroimidazo[1,5-a]pyrazine-7(8H)-carboxamide] | 14 nM | 23600 nM |
| CNC(=O)N1CCn2c(C3CC(F)(F)C3)nc(-c3cccc4nc(-c5cnn(C)c5)c(C#N)cc34)c2C1 [Example 67, 1-(3-cyano-2-(1-methyl-1H-pyrazol-4-yl)quinolin-5-yl)-3-(3,3-difluorocyclobutyl)-N-methyl-5,6-dihydroimidazo[1,5-a]pyrazine-7(8H)-carboxamide] | 36 nM | > 25000 nM |
| CNC(=O)N1CCn2c(C3CCOCC3)nc(-c3cccc4cc(C5CCOCC5)ncc34)c2C1 [Example 68, N-methyl-3-(tetrahydro-2H-pyran-4-yl)-1-(3-(tetrahydro-2H-pyran-4-yl)isoquinolin-8-yl)-5,6-dihydroimidazo[1,5-a]pyrazine-7(8H)-carboxamide] | 16 nM | > 25000 nM |
| CNC(=O)N1CCn2c(C3CC3)nc(-c3cccc4cc(-c5cn(C)nc5C)ncc34)c2C1 [Example 69, 3-cyclopropyl-1-(3-(1,3-dimethyl-1H-pyrazol-4-yl)isoquinolin-8-yl)-N-methyl-5,6-dihydroimidazo[1,5-a]pyrazine-7(8H)-carboxamide] | 17 nM | 10100 nM |
| CNC(=O)N1CCn2c(C3CCOCC3)nc(-c3cccc4cc(-c5cn(C)nc5C)ncc34)c2C1 [Example 70, 1-(3-(1,3-dimethyl-1H-pyrazol-4-yl)isoquinolin-8-yl)-N-methyl-3-(tetrahydro-2H-pyran-4-yl)-5,6-dihydroimidazo[1,5-a]pyrazine-7(8H)-carboxamide] | 12 nM | 12300 nM |
| CNC(=O)N1CCn2c(C3CC(F)(F)C3)nc(-c3cccc4cc(-c5cn(C)nc5C)ncc34)c2C1 [Example 71, 3-(3,3-difluorocyclobutyl)-1-(3-(1,3-dimethyl-1H-pyrazol-4-yl)isoquinolin-8-yl)-N-methyl-5,6-dihydroimidazo[1,5-a]pyrazine-7(8H)-carboxamide] | 38 nM | 13400 nM |
| CNC(=O)N1CCn2c(C3CC3)nc(-c3c(F)ccc4cc(-c5cn(C)nc5C)ncc34)c2C1 [Example 72, 3-cyclopropyl-1-(3-(1,3-dimethyl-1H-pyrazol-4-yl)-7-fluoroisoquinolin-8-yl)-N-methyl-5,6-dihydroimidazo[1,5-a]pyrazine-7(8H)-carboxamide] | 54 nM | 17100 nM |
| CNC(=O)N1CCn2c(C3CCOCC3)nc(-c3c(F)ccc4cc(-c5cn(C)nc5C)ncc34)c2C1 [Example 73, 1-(3-(1,3-dimethyl-1H-pyrazol-4-yl)-7-fluoroisoquinolin-8-yl)-N-methyl-3-(tetrahydro-2H-pyran-4-yl)-5,6-dihydroimidazo[1,5-a]pyrazine-7(8H)-carboxamide] | 40 nM | > 25000 nM |
| CNC(=O)N1CCn2c(C3CC3)nc(-c3c(F)ccc4cc(C5CCOCC5)ncc34)c2C1 [Example 75, 3-cyclopropyl-1-(7-fluoro-3-(tetrahydro-2H-pyran-4-yl)isoquinolin-8-yl)-N-methyl-5,6-dihydroimidazo[1,5-a]pyrazine-7(8H)-carboxamide] | 22 nM | > 25000 nM |
| CNC(=O)N1CCn2c(C3CC(F)(F)C3)nc(-c3c(F)ccc4cc(-c5cn(C)nc5C)ncc34)c2C1 [Example 77, 3-(3,3-difluorocyclobutyl)-1-(3-(1,3-dimethyl-1H-pyrazol-4-yl)-7-fluoroisoquinolin-8-yl)-N-methyl-5,6-dihydroimidazo[1,5-a]pyrazine-7(8H)-carboxamide] | 45 nM | > 25000 nM |

Compounds with a lower IC50 [1], results first:

| IC50 [1] | IC50 (BRD4(49-170) bromodomain) | Structure (SMILES) |
| --- | --- | --- |
| 1 nM | 5970 nM | CNC(=O)c1ccc(-c2cc3cccc(-c4nc(C5CCOCC5)n5c4CN(C(=O)NC)CC5)c3cn2)cn1 [Example 57, N-methyl-1-(3-(6-(methylcarbamoyl)pyridin-3-yl)isoquinolin-8-yl)-3-(tetrahydro-2H-pyran-4-yl)-5,6-dihydroimidazo[1,5-a]pyrazine-7(8H)-carboxamide] |
| 5 nM | 19000 nM | CNC(=O)N1CCn2c(C3CCC(F)(F)CC3)nc(-c3cccc4nc(-c5cnn(C)c5)c(C(F)F)cc34)c2C1 [Example 59, 3-(4,4-difluorocyclohexyl)-1-(3-(difluoromethyl)-2-(1-methyl-1H-pyrazol-4-yl)quinolin-5-yl)-N-methyl-5,6-dihydroimidazo[1,5-a]pyrazine-7(8H)-carboxamide] |
| 5 nM | 13500 nM | CNC(=O)N1CCn2c(C3CC3)nc(-c3cccc4nc(-c5cnn(C)c5)c(C(F)(F)F)cc34)c2C1 [Example 62, 3-cyclopropyl-N-methyl-1-(2-(1-methyl-1H-pyrazol-4-yl)-3-(trifluoromethyl)quinolin-5-yl)-5,6-dihydroimidazo[1,5-a]pyrazine-7(8H)-carboxamide] |
| 4 nM | 22800 nM | CNC(=O)N1CCn2c(C3CCOCC3)nc(-c3cccc4nc(-c5cnn(C)c5)c(C#N)cc34)c2C1 [Example 64, 1-(3-cyano-2-(1-methyl-1H-pyrazol-4-yl)quinolin-5-yl)-N-methyl-3-(tetrahydro-2H-pyran-4-yl)-5,6-dihydroimidazo[1,5-a]pyrazine-7(8H)-carboxamide] |
| 4 nM | 13700 nM | CNC(=O)N1CCn2c(C3CCOCC3)nc(-c3cccc4nc(-c5cnn(C)c5)c(C(F)(F)F)cc34)c2C1 [Example 65, N-methyl-1-(2-(1-methyl-1H-pyrazol-4-yl)-3-(trifluoromethyl)quinolin-5-yl)-3-(tetrahydro-2H-pyran-4-yl)-5,6-dihydroimidazo[1,5-a]pyrazine-7(8H)-carboxamide] |
| 4 nM | > 25000 nM | CNC(=O)N1CCn2c(C3CCC(F)(F)CC3)nc(-c3cccc4cc(N5CCOCC5)ncc34)c2C1 [Example 74, 3-(4,4-difluorocyclohexyl)-N-methyl-1(3-morpholinoisoquinolin-8-yl)-5,6-dihydroimidazo[1,5-a]pyrazine-7(8H)-carboxamide] |
| 3 nM | 11900 nM | CNC(=O)N1CCn2c(C3CCC(F)(F)CC3)nc(-c3cccc4cc(-c5cn(C)nc5C)ncc34)c2C1 [Example 76, 3-(4,4-difluorocyclohexyl)-1-(3-(1,3-dimethyl-1H-pyrazol-4-yl)isoquinolin-8-yl)-N-methyl-5,6-dihydroimidazo[1,5-a]pyrazine-7(8H)-carboxamide] |
| 1 nM | 13500 nM | CNC(=O)N1CCn2c(C3CCC(F)(F)CC3)nc(-c3cccc4nc(-c5cnn(C)c5)c(C(F)(F)F)cc34)c2C1 [Example 78, 3-(4,4-difluorocyclohexyl)-N-methyl-1-(2-(1-methyl-1H-pyrazol-4-yl)-3-(trifluoromethyl)quinolin-5-yl)-5,6-dihydroimidazo[1,5-a]pyrazine-7(8H)-carboxamide] |
| 6 nM | 14800 nM | CNC(=O)N1CCn2c(C3CC(F)(F)C3)nc(-c3cccc4cc(-c5ccn(C)n5)ncc34)c2C1 [Example 79, 3-(3,3-difluorocyclobutyl)-N-methyl-1-(3-(1-methyl-1H-pyrazol-3-yl)isoquinolin-8-yl)-5,6-dihydroimidazo[1,5-a]pyrazine-7(8H)-carboxamide] |
| 2 nM | 11900 nM | CNC(=O)N1CCn2c(C3CCC(F)(F)CC3)nc(-c3cccc4cc(-c5ccn(C)n5)ncc34)c2C1 [Example 80, 3-(4,4-difluorocyclohexyl)-N-methyl-1-(3-(1-methyl-1H-pyrazol-3-yl)isoquinolin-8-yl)-5,6-dihydroimidazo[1,5-a]pyrazine-7(8H)-carboxamide] |
| 11 nM | 10500 nM | CNC(=O)N1CCn2c(C3CCC(F)(F)CC3)nc(-c3c(F)ccc4cc(-c5cn(C)nc5C)ncc34)c2C1 [Example 81, 3-(4,4-difluorocyclohexyl)-1-(3-(1,3-dimethyl-1H-pyrazol-4-yl)-7-fluoroisoquinolin-8-yl)-N-methyl-5,6-dihydroimidazo[1,5-a]pyrazine-7(8H)-carboxamide] |
| 3 nM | 17900 nM | CNC(=O)N1CCn2c(C3CCC(F)(F)CC3)nc(-c3cccc4nc(-c5cnn(C)c5)c(C#N)cc34)c2C1 [Example 82, 1-(3-cyano-2-(1-methyl-1H-pyrazol-4-yl)quinolin-5-yl)-3-(4,4-difluorocyclohexyl)-N-methyl-5,6-dihydroimidazo[1,5-a]pyrazine-7(8H)-carboxamide] |
